Test results as given in ChEMBL document CHEMBL5104195, “Discovery of Orally Bioavailable SOS1 Inhibitors for Suppressing KRAS-Driven Carcinoma” (J Med Chem, 2022).

Assays:
[1] = Elimination rate constant in ICR mouse at 50 mg/kg, po measured up to 24 hrs by LC-MS/MS analysis; conditions: in vivo
[2] = Half life in ICR mouse at 50 mg/kg, po measured up to 24 hrs by LC-MS/MS analysis; conditions: in vivo
[3] = MRT in ICR mouse at 50 mg/kg, po measured up to 24 hrs by LC-MS/MS analysis; conditions: in vivo
[4] = Toxicity in BALB/c nude mouse xenografted with human MIA PaCa-21 cells expressing KRAS G12C mutant assessed as animal death at 50 mg/kg, po qd measured on day 21; conditions: in vivo, 504 h
[5] = Toxicity in BALB/c nude mouse xenografted with human MIA PaCa-21 cells expressing KRAS G12C mutant assessed as weight loss at 50 mg/kg, po qd measured on day 21; conditions: in vivo
[6] = Plasma protein binding in rat at 2 uM preincubated for 1 hr by balanced dialysis based LC-MS/MS analysis
[7] = Plasma protein binding in mouse at 2 uM preincubated for 1 hr by balanced dialysis based LC-MS/MS analysis
[8] = Plasma protein binding in dog at 2 uM preincubated for 1 hr by balanced dialysis based LC-MS/MS analysis
[9] = Plasma protein binding in monkey at 2 uM preincubated for 1 hr by balanced dialysis based LC-MS/MS analysis; conditions: rhesus monkey
[10] = target: T1, Cytochrome P450 3A4 (Homo sapiens, UniProt P08684); assay: Inhibition of CYP3A4 in human liver microsomes at 10 uM using midazolam as substrate preincubated for 10 mins followed by NADPH addition by LC/MS analysis
[11] = target: T2, Cytochrome P450 1A2 (Homo sapiens, UniProt P05177); assay: Inhibition of CYP1A2 in human liver microsomes at 10 uM using phenacetin as substrate preincubated for 10 mins followed by NADPH addition by LC/MS analysis
T2 sequence (P05177 whole entry): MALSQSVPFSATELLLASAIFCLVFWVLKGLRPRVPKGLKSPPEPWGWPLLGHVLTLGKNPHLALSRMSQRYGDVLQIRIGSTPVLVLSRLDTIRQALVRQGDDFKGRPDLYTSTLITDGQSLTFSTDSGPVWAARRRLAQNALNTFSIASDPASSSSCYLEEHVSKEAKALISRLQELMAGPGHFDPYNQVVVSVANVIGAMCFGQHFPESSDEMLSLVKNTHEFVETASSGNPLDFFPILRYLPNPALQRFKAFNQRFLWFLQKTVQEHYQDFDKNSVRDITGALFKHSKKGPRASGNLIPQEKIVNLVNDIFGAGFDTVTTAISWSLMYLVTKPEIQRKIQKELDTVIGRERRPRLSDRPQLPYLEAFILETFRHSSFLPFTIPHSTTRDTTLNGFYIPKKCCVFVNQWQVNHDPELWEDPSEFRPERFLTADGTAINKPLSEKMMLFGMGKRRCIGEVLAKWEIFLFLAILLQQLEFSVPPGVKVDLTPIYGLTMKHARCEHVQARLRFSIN

[12] = target: T3, Cytochrome P450 2C9 (Homo sapiens, UniProt P11712); assay: Inhibition of CYP2C9 in human liver microsomes at 10 uM using diclofenac as substrate preincubated for 10 mins followed by NADPH addition by LC/MS analysis
[13] = target: T4, Cytochrome P450 2C8 (Homo sapiens, UniProt P10632); assay: Inhibition of CYP2C8 in human liver microsomes at 10 uM using amodiaquine as substrate preincubated for 10 mins followed by NADPH addition by LC/MS analysis
T4 sequence (P10632 whole entry): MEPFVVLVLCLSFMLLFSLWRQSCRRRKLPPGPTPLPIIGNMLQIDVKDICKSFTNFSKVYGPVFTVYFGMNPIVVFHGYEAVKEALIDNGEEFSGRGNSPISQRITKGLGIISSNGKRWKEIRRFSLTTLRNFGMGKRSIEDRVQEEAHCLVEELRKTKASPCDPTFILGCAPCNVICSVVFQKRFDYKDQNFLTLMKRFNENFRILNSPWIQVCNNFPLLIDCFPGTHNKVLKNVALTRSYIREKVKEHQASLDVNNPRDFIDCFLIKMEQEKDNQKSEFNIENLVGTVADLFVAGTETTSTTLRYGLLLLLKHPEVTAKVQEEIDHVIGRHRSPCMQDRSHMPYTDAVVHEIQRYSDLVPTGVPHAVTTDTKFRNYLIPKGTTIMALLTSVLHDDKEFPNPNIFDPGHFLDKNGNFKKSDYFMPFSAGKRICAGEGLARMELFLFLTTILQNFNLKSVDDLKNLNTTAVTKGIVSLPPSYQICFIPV

[14] = target: T5, Cytochrome P450 2D6 (Homo sapiens, UniProt P10635); assay: Inhibition of CYP2D6 in human liver microsomes at 10 uM using dextromethorphan as substrate preincubated for 10 mins followed by NADPH addition by LC/MS analysis
[15] = target: T3, Cytochrome P450 2C9; assay: Time-dependent inhibition of CYP2C9 (unknown origin) at 2 ul pre-incubated for 30 mins in presence or absence of NADPH incubated for 10 mins by LC/MS analysis
[16] = target: T4, Cytochrome P450 2C8; assay: Time-dependent inhibition of CYP2C8 (unknown origin) at 2 ul pre-incubated for 30 mins in presence or absence of NADPH incubated for 10 mins by LC/MS analysis
[17] = target: T5, Cytochrome P450 2D6; assay: Time-dependent inhibition of CYP2D6 (unknown origin) at 2 ul pre-incubated for 30 mins in presence or absence of NADPH incubated for 10 mins by LC/MS analysis
[18] = target: T1, Cytochrome P450 3A4; assay: Time-dependent inhibition of CYP3A4 (unknown origin) at 2 ul pre-incubated for 30 mins in presence or absence of NADPH incubated for 10 mins by LC/MS analysis
[19] = Apparent permeability across apical to basolateral side in dog MDCKII-MDR1 cells; conditions: MDCK-MDR1
[20] = Apparent permeability across basolateral side to apical side in dog MDCKII-MDR1 cells; conditions: MDCK-MDR1
[21] = Cardiotoxicity in Patient-specific iPSC-derived cardiomyocytes assessed as decrease in maximum depolarization rate of action potential at 0.03 to 3 uM by patch clamp assay; conditions: human, cardiac muscle cell
[22] = Cardiotoxicity in Patient-specific iPSC-derived cardiomyocytes assessed as decrease in spontaneous beating of myocardial cell at 3 uM by patch clamp assay; conditions: human, cardiac muscle cell
[23] = Cardiotoxicity in Patient-specific iPSC-derived cardiomyocytes assessed as decrease in spontaneous beating of myocardial cell at 10 uM by patch clamp assay; conditions: human, cardiac muscle cell
[24] = Cardiotoxicity in Patient-specific iPSC-derived cardiomyocytes assessed as decrease in action potential duration by patch clamp assay; format: toxicity, cell-based; conditions: human, cardiac muscle cell
[25] = Half life in Sprague-Dawley rat at 2 mg/kg, iv measured upto 24 hrs by LC/MS/MS analysis; conditions: in vivo
[26] = Half life in Sprague-Dawley rat at 10 mg/kg, po measured upto 24 hrs by LC/MS/MS analysis; conditions: in vivo
[27] = Half life in overnight fasted Beagle dog at 20 mg/kg, po measured upto 24 hrs by LC/MS/MS analysis; conditions: in vivo
[28] = rat, in vivo, iv, 2 mg/kg, 24 h
[29] = rat, in vivo, po, 10 mg/kg, 24 h
[30] = rat, in vivo, iv, 2 mg/kg, 24 h; remark: listed apart in the source
[31] = rat, in vivo, po, 10 mg/kg, 24 h; remark: listed apart in the source
[32] = rat, in vivo, iv, 2 mg/kg, 24 h; remark: listed apart in the source
[33] = rat, in vivo, po, 10 mg/kg, 24 h; remark: listed apart in the source
[34] = dog, in vivo, po, 20 mg/kg, 24 h
[35] = dog, in vivo, po, 20 mg/kg, 24 h; remark: listed apart in the source
[36] = dog, in vivo, po, 20 mg/kg, 24 h; remark: listed apart in the source
[37] = in vivo; conditions: ICR, mouse, po, 50 mg/kg
[38] = in vivo; conditions: ICR, mouse, po, 50 mg/kg; remark: listed apart in the source
[39] = in vivo; conditions: ICR, mouse, po, 50 mg/kg; remark: listed apart in the source
[40] = in vivo; conditions: Sprague-Dawley, rat, po, 10 mg/kg
[41] = in vitro; conditions: human, liver microsomes
[42] = in vitro; conditions: rat, liver microsomes
[43] = in vitro; conditions: mouse, liver microsomes
[44] = in vitro; conditions: dog, liver microsomes
[45] = in vitro; conditions: rhesus monkey, liver microsomes

T3 sequence (P11712 whole entry): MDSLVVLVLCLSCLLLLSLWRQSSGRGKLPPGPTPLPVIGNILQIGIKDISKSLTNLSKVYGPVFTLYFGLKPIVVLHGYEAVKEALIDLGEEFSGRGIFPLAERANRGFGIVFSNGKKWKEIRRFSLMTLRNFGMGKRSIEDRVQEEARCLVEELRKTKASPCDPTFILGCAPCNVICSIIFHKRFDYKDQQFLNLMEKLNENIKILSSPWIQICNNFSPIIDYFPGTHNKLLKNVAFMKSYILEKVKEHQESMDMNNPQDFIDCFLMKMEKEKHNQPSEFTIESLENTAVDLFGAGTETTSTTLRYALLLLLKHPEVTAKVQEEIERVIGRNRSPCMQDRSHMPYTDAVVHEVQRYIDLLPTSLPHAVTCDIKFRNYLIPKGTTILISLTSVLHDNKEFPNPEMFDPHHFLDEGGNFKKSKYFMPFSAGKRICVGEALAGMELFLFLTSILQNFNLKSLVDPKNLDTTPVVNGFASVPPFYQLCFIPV
T1 sequence (P08684 whole entry): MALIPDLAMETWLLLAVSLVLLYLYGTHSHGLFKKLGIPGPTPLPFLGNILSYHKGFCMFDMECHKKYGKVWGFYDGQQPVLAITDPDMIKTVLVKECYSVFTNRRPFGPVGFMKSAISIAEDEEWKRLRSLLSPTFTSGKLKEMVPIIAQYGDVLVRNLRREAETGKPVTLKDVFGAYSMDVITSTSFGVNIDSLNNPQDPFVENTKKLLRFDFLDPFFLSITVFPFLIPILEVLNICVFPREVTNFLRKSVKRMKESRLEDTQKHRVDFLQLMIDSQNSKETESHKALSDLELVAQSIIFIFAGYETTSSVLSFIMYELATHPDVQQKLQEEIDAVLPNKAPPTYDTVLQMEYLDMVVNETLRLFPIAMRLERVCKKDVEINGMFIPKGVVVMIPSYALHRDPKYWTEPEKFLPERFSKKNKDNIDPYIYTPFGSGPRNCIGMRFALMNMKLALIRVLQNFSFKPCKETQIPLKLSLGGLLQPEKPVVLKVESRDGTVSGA
T5 sequence (P10635 whole entry): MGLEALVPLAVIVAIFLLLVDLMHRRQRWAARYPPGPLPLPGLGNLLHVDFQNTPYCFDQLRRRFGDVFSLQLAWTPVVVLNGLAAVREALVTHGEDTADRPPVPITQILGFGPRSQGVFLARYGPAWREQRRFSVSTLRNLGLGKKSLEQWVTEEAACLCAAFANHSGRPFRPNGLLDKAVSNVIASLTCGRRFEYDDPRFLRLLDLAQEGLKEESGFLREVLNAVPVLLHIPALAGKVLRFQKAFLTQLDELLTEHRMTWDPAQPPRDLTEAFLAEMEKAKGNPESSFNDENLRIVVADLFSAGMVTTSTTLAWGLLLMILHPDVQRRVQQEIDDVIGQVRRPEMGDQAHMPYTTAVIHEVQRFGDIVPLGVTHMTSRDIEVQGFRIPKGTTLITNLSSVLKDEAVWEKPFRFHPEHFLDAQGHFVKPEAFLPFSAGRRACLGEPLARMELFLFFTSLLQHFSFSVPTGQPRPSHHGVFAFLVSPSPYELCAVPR

## Cc1nc(N[C@H](C)c2cccc(C(F)F)c2F)c2cc3c(cc2n1)OCC[C@H]1CN(CC(F)(F)F)CCN31
[1]
  k el at 24 h: 4.75e-05 s⁻¹
[2]
  half-life at 24 h: 4.13 h
[3]
  MRT at 24 h: 5.5 h
[4]
  Activity: Non-Toxic
[5]
  Activity: Non-Toxic
[6]
  fraction unbound at 1 h, 2 µM: 0.001
[7]
  fraction unbound at 1 h, 2 µM: 0.001
[8]
  fraction unbound at 1 h, 2 µM: 0.002
[9]
  fraction unbound at 1 h, 2 µM: 0.001
[10]
  IC50: > 100 µM
[11]
  IC50: > 100 µM
[12]
  IC50: 15.4 µM
[13]
  IC50: 45.2 µM
[14]
  IC50: 6.1 µM
[15]
  IC50: 14.6 µM
[16]
  IC50: 39.1 µM
[17]
  IC50: 4.3 µM
[18]
  IC50: > 100 µM
[19]
  Papp A→B: 0.26 ×10⁻⁶ cm/s
[20]
  Papp B→A: 0.78 ×10⁻⁶ cm/s
[21]
  Activity: Toxic
[22]
  Activity: Toxic
[23]
  Activity: Toxic
[24]
  Activity: Toxic
[25]
  t1/2: 5.35 h
[26]
  t1/2: 2 h
[27]
  t1/2: 6.74 h
[28]
  Tmax: 4.8 min
[29]
  Tmax: 2.33 h
[30]
  Cmax: 518 ng/mL
[31]
  Cmax: 109 ng/mL
[32]
  AUC: 596 ng·h/mL
[33]
  AUC: 563 ng·h/mL
[34]
  Tmax: 1.17 h
[35]
  Cmax: 232 ng/mL
[36]
  AUC: 1322 ng·h/mL
[37]
  Tmax at 24 h: 0.833 h
[38]
  Cmax at 24 h: 2260 ng/mL
[39]
  AUC at 24 h: 19900 ng·h/mL
[40]
  bioavailability at 24 h: 18.8%
[41]
  CLint scaled at 1 h, 1 µM: 442 mL/min/kg
[42]
  CLint scaled at 1 h, 1 µM: 516 mL/min/kg
[43]
  CLint scaled at 1 h, 1 µM: 436 mL/min/kg
[44]
  CLint scaled at 1 h, 1 µM: 12 mL/min/kg
[45]
  CLint scaled at 1 h, 1 µM: 396 mL/min/kg
